Laboratory results taken from US20080319042A1, “Compositions and methods for treatment of liver disease” (priority 2007, published 2008).
Values joined by “and” are separate entries in the source; they are usually repeats but may differ in a detail not shown here. Identical values can stand only once.

Key:
HBeAg = experiment: Anti-HBSAg Assay (Procedure B), HBeAg; type: cell-based, hepatitis B virus; set-up: HBeAg Ave: unit not given here
HCV/HIV pseudovirions = experiment: microbe, parasite or virus in culture; type: cell-based, hepatitis C virus; details: 100 μg/mL; FIG. 1
[1] = system: hepatitis B surface antigen (HBsAg) production; experiment: Anti-HBSAg Assay (Procedure A); type: cell-based, hepatitis B virus; details: 50 μg/ml
Experimental: (§1) The HBV-producing human hepatoblastoma cell line, Hep G2.2.15 was maintained in DMEM supplemented with 10% fetal bovine serum (FBS), 2 mM glutamine, 100 units/ml penicillin, 100 μg/ml streptomycin and 380 μg/ml gentamicin sulfate (G418) at 37° C. under 5% CO2 in air. The Hep G2 parental cells were grown under identical conditions in MEM with Earle's salts without G418.
(§2) Hep G2.2.15 cells (190 μl) were seeded onto microtiter plates at a concentration of 20×10^4 cells/ml. The cells incubated overnight in medium without G418 after which the compound compositions (10 μl) were added. Five 2-fold serial dilutions of extracts or fractions were tested starting at 200 μg/ml final culture concentration. PBS and 3TC (lamivudine) were included as the negative and positive controls, respectively. The treated cells were incubated at 37° C. for 4 days, after which the hepatitis B surface antigen (HBsAg) production in culture supernatants was assayed. The HBsAg released into the culture medium in the presence or absence of test samples was assayed using the BIO-RAD Genetic Systems HBsAg EIA 3.0 kit (Bio-Rad, Redmond, Wash.). This enzyme immunoassay is based on the capture of HBsAg on monoclonal antibody-coated plates. Four- and twelve-fold dilutions of all culture supernatants collected were assayed in triplicate wells of the EIA plate. The percentage inhibition of HBsAg secretion in the presence of the plant samples was calculated against the negative control (PBS).

HBV DNA = experiment: Anti-HBV DNA Assay; type: cell-based, hepatitis B virus; details: for HBV DNA copies/ml: replicates, listed as HP-S3
HBsAg = experiment: Anti-HBSAg Assay (Procedure B), HBsAg; type: cell-based, hepatitis B virus; set-up: HBsAg Ave.: unit not given here
Experimental: The HBV-producing human hepatoblastoma cell line, Hep G2 2.2.15 is maintained in DMEM supplemented with 10% fetal bovine serum (FBS), 2 mM glutamine, 100 units/ml penicillin, 100 μg/ml streptomycin at 37° C. under 5% CO2 in air.
Samples were dissolved in DMSO at the concentration of 20 mg/mL, then further diluted with DMEM medium to the appropriate concentration.
Hep G2 2.2.15 cells (120 μl) were seeded onto 96-well plates at a concentration of 2×10^5 cells/mL. The cells incubated for 72 h in the medium without G418, after which the test samples (120 μl) were added. Five 3-fold serial dilutions of samples were tested. PBS and 3TC (lamivudine) were included as the negative and positive controls, respectively. The treated cells were incubated at 37° C. for 9 days; with the medium with sample being changed each 3 days, after which the culture supernatant was removed for analysis of both the hepatitis B surface antigen (HBsAg) production and hepatitis B DNA expression.
The HBsAg released into the culture medium in the presence or absence of test material was assayed using the kit manufactured by Shanghai Siic Kehua Biotech Co., Ltd (Shanghai, China). This enzyme immunoassay is based on the capture of HBsAg on monoclonal antibody-coated plates. Four- and twelve-fold dilutions of all culture supernatants collected were assayed in triplicate wells of the kit plate. The percentage inhibition of HBsAg secretion in the presence of the compound was calculated against the negative control (PBS). The IC50 values, the dose that inhibited viruses by 50%, were calculated using non-linear regression analysis (percent survival versus concentration).

Hep G2.2.15 cells = experiment: % Cell Viability in Anti-HBSAg Assay (Procedure A); type: cell-based, human; details: 50 μg/ml
Experimental: as §1, §2

OCC1=C[C@@H](O)[C@@H]2C=CO[C@@H](O[C@@H]3O[C@H](CO)[C@@H](O)[C@H](O)[C@H]3O)[C@H]12 [aucubin]
HBeAg Ave (HBeAg; 12.5 μg/mL): 1.378 | HBeAg Inhibition % (HBeAg; 12.5 μg/mL): 0% | HBeAg OD1 (HBeAg; 12.5 μg/mL): 1.397 | HBeAg OD2 (HBeAg; 12.5 μg/mL): 1.419 | HBeAg OD3 (HBeAg; 12.5 μg/mL): 1.318 | HBeAg Ave (HBeAg; 25 μg/mL): 1.364 | HBeAg Inhibition % (HBeAg; 25 μg/mL): 0% | HBeAg OD1 (HBeAg; 25 μg/mL): 1.332 | HBeAg OD2 (HBeAg; 25 μg/mL): 1.369 | HBeAg OD3 (HBeAg; 25 μg/mL): 1.390 | HBeAg Ave (HBeAg; 50 μg/mL): 1.383 | HBeAg Inhibition % (HBeAg; 50 μg/mL): 0% | HBeAg OD1 (HBeAg; 50 μg/mL): 1.357 | HBeAg OD2 (HBeAg; 50 μg/mL): 1.437 | HBeAg OD3 (HBeAg; 50 μg/mL): 1.354 | HBeAg Ave (HBeAg; 100 μg/mL): 1.616 | HBeAg Inhibition % (HBeAg; 100 μg/mL): 0% | HBeAg OD1 (HBeAg; 100 μg/mL): 1.707 | HBeAg OD2 (HBeAg; 100 μg/mL): 1.479 | HBeAg OD3 (HBeAg; 100 μg/mL): 1.662 | HBeAg Ave (HBeAg; 200 μg/mL): 1.357 | HBeAg Inhibition % (HBeAg; 200 μg/mL): 0% | HBeAg OD1 (HBeAg; 200 μg/mL): 1.350 | HBeAg OD2 (HBeAg; 200 μg/mL): 1.305 | HBeAg OD3 (HBeAg; 200 μg/mL): 1.415 | inhibition of HCV/HIV entry (HCV/HIV pseudovirions): inactive | % Control HBSAg [1]: 100% | % Inhibition [1]: 0% | HBV DNA Average (HBV DNA; 12.5 μg/ml): 1.06 × 10^6 copies/ml | HBV DNA Inhibit (HBV DNA; 12.5 μg/ml): 9.40% | HBV DNA copies/ml (HBV DNA; 12.5 μg/ml): 1.03E+06 copies/ml and 9.68E+05 copies/ml and 1.18E+06 copies/ml | HBV DNA Average (HBV DNA; 25 μg/ml): 1.03 × 10^5 copies/ml | HBV DNA Inhibit (HBV DNA; 25 μg/ml): 1.35% | HBV DNA copies/ml (HBV DNA; 25 μg/ml): 9.52E+05 copies/ml and 1.07E+06 copies/ml and 1.04E+06 copies/ml | HBV DNA Average (HBV DNA; 50 μg/ml): 1.28 × 10^6 copies/ml | HBV DNA Inhibit (HBV DNA; 50 μg/ml): 0.00% | HBV DNA copies/ml (HBV DNA; 50 μg/ml): 1.22E+06 copies/ml and 1.27E+06 copies/ml and 1.35E+06 copies/ml | HBV DNA Average (HBV DNA; 100 μg/ml): 1.32 × 10^6 copies/ml | HBV DNA Inhibit (HBV DNA; 100 μg/ml): 0.00% | HBV DNA copies/ml (HBV DNA; 100 μg/ml): 1.17E+06 copies/ml and 1.15E+06 copies/ml and 1.65E+06 copies/ml | HBV DNA Average (HBV DNA; 200 μg/ml): 1.20 × 10^6 copies/ml | HBV DNA Inhibit (HBV DNA; 200 μg/ml): 0.00% | HBV DNA copies/ml (HBV DNA; 200 μg/ml): 1.38E+06 copies/ml and 9.71E+05 copies/ml and 1.24E+06 copies/ml | HBsAg Ave. (HBsAg; 12.5 μg/mL): 1.232 | HBsAg Inhibition % (HBsAg; 12.5 μg/mL): 0% | HBsAg OD1 (HBsAg; 12.5 μg/mL): 1.196 | HBsAg OD2 (HBsAg; 12.5 μg/mL): 1.261 | HBsAg OD3 (HBsAg; 12.5 μg/mL): 1.238 | HBsAg Ave. (HBsAg; 25 μg/mL): 1.309 | HBsAg Inhibition % (HBsAg; 25 μg/mL): 0% | HBsAg OD1 (HBsAg; 25 μg/mL): 1.242 | HBsAg OD2 (HBsAg; 25 μg/mL): 1.384 | HBsAg OD3 (HBsAg; 25 μg/mL): 1.302 | HBsAg Ave. (HBsAg; 50 μg/mL): 1.272 | HBsAg Inhibition % (HBsAg; 50 μg/mL): 0% | HBsAg OD1 (HBsAg; 50 μg/mL): 1.218 | HBsAg OD2 (HBsAg; 50 μg/mL): 1.375 | HBsAg OD3 (HBsAg; 50 μg/mL): 1.222 | HBsAg Ave. (HBsAg; 100 μg/mL): 1.292 | HBsAg Inhibition % (HBsAg; 100 μg/mL): 0% | HBsAg OD1 (HBsAg; 100 μg/mL): 1.276 | HBsAg OD2 (HBsAg; 100 μg/mL): 1.353 | HBsAg OD3 (HBsAg; 100 μg/mL): 1.246 | HBsAg Ave. (HBsAg; 200 μg/mL): 1.541 | HBsAg Inhibition % (HBsAg; 200 μg/mL): 0% | HBsAg OD1 (HBsAg; 200 μg/mL): 1.546 | HBsAg OD2 (HBsAg; 200 μg/mL): 1.616 | HBsAg OD3 (HBsAg; 200 μg/mL): 1.46

OCC1=CC(O)C2C=COC(O)C12 (mixture of isomers) [aucubin enzyme hydrolysate, reference compound]
% Control HBSAg [1]: 96% | % Inhibition [1]: 4% | % Cell Viability (Hep G2.2.15 cells): 100%
